Test results reported in EP0973746B1, “SUBSTITUTED 3-CYANO QUINOLINES” (Wyeth Holdings Corporation, priority 1997, dated 1998).
≈ marks a conversion by molar mass, not a printed value. Where two headings read alike, the source gives them in different places.

What was measured:
HL60 = experiment: Inhibition of cancer cell growth as measured by cell number, HL60; type: cell-based; conditions: Homo sapiens, read-out: IC50 HL60
HTB161 = experiment: Inhibition of cancer cell growth as measured by cell number, HTB161; type: cell-based; conditions: Homo sapiens, read-out: IC50 HTB161
LX1 = experiment: Inhibition of cancer cell growth as measured by cell number, LX1; type: cell-based; conditions: Homo sapiens, read-out: IC50 LX1
A27805 = experiment: Inhibition of cancer cell growth as measured by cell number, A27805; type: cell-based; conditions: Homo sapiens, read-out: IC50 A27805
HCT15 = experiment: Inhibition of cancer cell growth as measured by cell number, HCT15; type: cell-based; conditions: Homo sapiens, read-out: IC50 HCT15
CX1 = experiment: Inhibition of cancer cell growth as measured by cell number, CX1; type: cell-based; conditions: Homo sapiens, read-out: IC50 CX1
B7474 = experiment: Inhibition of cancer cell growth as measured by cell number, B7474; type: cell-based; conditions: Homo sapiens, read-out: IC50 B7474
T47D = experiment: Inhibition of cancer cell growth as measured by cell number, T47D; type: cell-based; conditions: Homo sapiens
[1] = molecular target: epidermal growth factor receptor kinase (Homo sapiens, UniProt P00533); experiment: biochemical
Chain of epidermal growth factor receptor kinase (P00533 25-1210): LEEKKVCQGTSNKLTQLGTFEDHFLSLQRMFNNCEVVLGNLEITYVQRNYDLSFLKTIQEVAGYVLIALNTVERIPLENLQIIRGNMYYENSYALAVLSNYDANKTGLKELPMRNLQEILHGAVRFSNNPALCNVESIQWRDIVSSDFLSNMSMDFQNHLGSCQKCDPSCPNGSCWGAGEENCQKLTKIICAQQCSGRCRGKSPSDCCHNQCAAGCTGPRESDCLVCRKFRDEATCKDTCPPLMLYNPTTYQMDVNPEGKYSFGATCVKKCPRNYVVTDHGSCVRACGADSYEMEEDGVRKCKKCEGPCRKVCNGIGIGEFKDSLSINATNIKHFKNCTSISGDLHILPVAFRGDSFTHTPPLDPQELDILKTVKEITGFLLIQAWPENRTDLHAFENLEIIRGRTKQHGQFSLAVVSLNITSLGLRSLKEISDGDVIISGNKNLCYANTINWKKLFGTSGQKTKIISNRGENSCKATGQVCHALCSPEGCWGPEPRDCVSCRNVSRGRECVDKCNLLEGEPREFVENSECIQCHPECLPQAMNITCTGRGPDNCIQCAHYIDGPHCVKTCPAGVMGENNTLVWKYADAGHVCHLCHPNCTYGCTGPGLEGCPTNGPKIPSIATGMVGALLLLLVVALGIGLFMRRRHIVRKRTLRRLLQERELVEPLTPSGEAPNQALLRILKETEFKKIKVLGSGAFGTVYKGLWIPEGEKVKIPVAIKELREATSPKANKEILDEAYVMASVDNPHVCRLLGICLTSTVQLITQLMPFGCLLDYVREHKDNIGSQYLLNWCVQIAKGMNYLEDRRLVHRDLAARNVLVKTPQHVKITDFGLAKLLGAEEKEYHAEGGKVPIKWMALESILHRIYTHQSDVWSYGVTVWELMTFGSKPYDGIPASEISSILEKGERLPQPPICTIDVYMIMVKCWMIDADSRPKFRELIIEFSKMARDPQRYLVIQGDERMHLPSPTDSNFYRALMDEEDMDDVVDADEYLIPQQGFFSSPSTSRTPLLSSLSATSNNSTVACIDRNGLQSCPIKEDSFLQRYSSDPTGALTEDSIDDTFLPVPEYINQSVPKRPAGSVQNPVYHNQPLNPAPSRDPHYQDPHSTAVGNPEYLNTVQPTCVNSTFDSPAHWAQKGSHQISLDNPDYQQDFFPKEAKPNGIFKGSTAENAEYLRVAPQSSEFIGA

CCL228 = experiment: Inhibition of cancer cell growth as measured by cell number, CCL228; type: cell-based; conditions: Homo sapiens, read-out: IC50 CCL228
NEC = experiment: Inhibition of cancer cell growth as measured by cell number, NEC; type: cell-based; conditions: Homo sapiens, read-out: IC50 NEC
A431 [2] = experiment: Inhibition of cancer cell growth as measured by cell number, A431; type: cell-based, human; conditions: Homo sapiens, A-431, 48 h;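 note: human A431 line, picked because it overexpresses epidermal growth factor receptor (EGFR)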
Source text: (§1) The cell lines were chosen since they overexpressed epidermal growth factor receptor (EGFR) (i.e. A431) or HER2/neu (SKBR3), or had little to no expression of the these receptors (SW620, LOX, MCF7).

SW620 = experiment: Inhibition of cancer cell growth as measured by cell number, SW620; type: cell-based, human; conditions: Homo sapiens, SW-620, 48 h;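 note: SW620 was included as a cell line with little or no EGFR or HER2/neu expression, in contrast to receptor-overexpressing lines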
Source text: as §1

SW948 = experiment: Inhibition of cancer cell growth as measured by cell number, SW948; type: cell-based; conditions: Homo sapiens, read-out: IC50 SW948
MCF7 = experiment: Inhibition of cancer cell growth as measured by cell number, MCF7; type: cell-based, human; conditions: Homo sapiens, MCF7, 48 h;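 note: MCF7 was included as a line with little or no EGFR or HER2/neu expression, in contrast to the receptor-overexpressing lines of the panel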
Source text: as §1

COLO205 = experiment: Inhibition of cancer cell growth as measured by cell number, COLO205; type: cell-based; conditions: Homo sapiens, read-out: IC50 COLO205
CACO2 = experiment: Inhibition of cancer cell growth as measured by cell number, CACO2; type: cell-based; conditions: Homo sapiens, read-out: IC50 CACO2
MIP = experiment: Inhibition of cancer cell growth as measured by cell number, MIP; type: cell-based; conditions: Homo sapiens; cell number, Sulforhodamine B, 48 hours exposure; Table 4; read-out: IC50 MIP
DU145 = experiment: Inhibition of cancer cell growth as measured by cell number, DU145; type: cell-based; conditions: Homo sapiens, read-out: IC50 DU145
A431 [3] = experiment: Inhibition of cell growth by incorporation of [3H]-thymidine, A431; type: cell-based, human
LOX = experiment: Inhibition of cancer cell growth as measured by cell number, LOX; type: cell-based, human; conditions: Homo sapiens, LOX, 48 h;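 note: LOX cells served as a line with low or absent EGFR and HER2/neu expression, in contrast to receptor-overexpressing lines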
Source text: as §1

A549 = experiment: Inhibition of cancer cell growth as measured by cell number, A549; type: cell-based; conditions: Homo sapiens, read-out: IC50 A549
A2780DDP = experiment: Inhibition of cancer cell growth as measured by cell number, A2780DDP; type: cell-based; conditions: Homo sapiens, read-out: IC50 A2780DDP
PC3 = experiment: Inhibition of cancer cell growth as measured by cell number, PC3; type: cell-based; conditions: Homo sapiens, read-out: IC50 PC3
NHEK = experiment: Inhibition of cell growth by incorporation of [3H]-thymidine, NHEK; type: cell-based, human; conditions: read-out: IC50 NHEK
Procedure: (§2) Representative compounds of this invention were evaluated for their ability to inhibit the growth of the cell lines described below in vitro. The inhibition is quantitated by measuring the decrease in the incorporation of radio-labeled thymidine when the cells are grown in the presence of the inhibitor. […] Cells were routinely grown in a humidified incubator in 5% CO2 in air.
(§3) Cells were seeded at 10,000 cells/well in 96 well plates in complete media and allowed to grow to log phase. At this stage the complete media was replaced with media containing 0.5% FBS (for cells growing in 10% FBS) or media lacking epidermal growth factor (EGF) (for cells growing in serum free media). […] Media with test compound was then removed and complete media was added back. The cells were allowed to grow for 18 hours. This is followed by incubation in [^3H]thymidine (1mCi/ml in serum/EGF media) for 4 hours. Cells were lysed in 0.5 M NaOH for at least 30 min at 37°C and radioactivity analyzed.
(§4) The % inhibition of the compound evaluated was determined for at least three different concentrations and the IC50 value evaluated from the dose response curve. […] CPM(control) is in units of counts per minute and is a number expressing the amount of [^3H]thymidine incorporated onto the DNA when cells are grown in the absence of test compound as measured by liquid scintillation counting.

LS174T = experiment: Inhibition of cancer cell growth as measured by cell number, LS174T; type: cell-based; conditions: Homo sapiens
SKBR3 [4] = experiment: Inhibition of cell growth by incorporation of [3H]-thymidine, SKBR3; type: cell-based, human
Procedure: as §2, §3, §4

SKBR3 [5] = experiment: Inhibition of cancer cell growth as measured by cell number, SKBR3; type: cell-based, human; conditions: Homo sapiens;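 note: SK-BR-3 cells were selected as a line overexpressing HER2/neu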
Source text: as §1

CCRF-CFM = experiment: Inhibition of cancer cell growth as measured by cell number, CCRF-CFM; type: cell-based; conditions: Homo sapiens, read-out: IC50 CCRF-CFM
LNCAP = experiment: Inhibition of cancer cell growth as measured by cell number, LNCAP; type: cell-based; conditions: Homo sapiens
NEU-3T3 = experiment: Inhibition of cell growth by incorporation of [3H]-thymidine, Neu-3T3; type: cell-based, mouse; conditions: [3H]-thymidine incorporation
Procedure: as §2, §3, §4

[6] = test system: human epidermoid tumors (A431); experiment: In vivo inhibition of the growth of human epidermoid tumors (A431); conditions: 80 mg/kg administered on days 1, 5, and 9, IP
In short: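 Female BALB/c nu/nu mice from Charles River were injected subcutaneously with 5 X 10^6 human epidermoid (A431) tumor cells. Once tumors weighed 100 to 150 mg, animals were randomized into treatment groups on day zero, and untreated controls were included. Tumor mass, calculated as (length X width^2)/2, was measured every 7 days for 28 days after staging. Relative growth was mean mass on days 7, 14, 21 and 28 divided by the day-zero mean.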

[7] = molecular target: recombinant human MEK 1 (MAPKK) and recombinant human ERK2 (MAPK); experiment: Mitogen Activated Protein Kinase (MAPK) assay, two component coupled MEK 1 / ERK2; type: biochemical; conditions: separate entries for the same compound = evaluated more than one time;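 note: MEK 1-activated ERK2 phosphorylates MBP or Myc peptide with 33P-ATP, filter capture and scintillation counting, inhibitor preincubated with ERK2 30 min at 0 °C, inhibition relative to uninhibited control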
[8] = cell number, Sulforhodamine B, 48 hours exposure, Table 4
[9] = cell number, Sulforhodamine B, 48 hours exposure, Table 6

## COc1cc2ncc(C#N)c(Nc3cccc(Br)c3)c2cc1OC [Example 31, 4-[(3-Bromophenyl)amino]-6,7-dimethoxy-3-quinolinecarbonitrile]
HL60; HL-60, cell number, Sulforhodamine B, 48 hours exposure, Table 7
  IC50: 0.894 µg/mL (≈ 2.33 µM)
HTB161; [8]
  IC50: 0.793 µg/mL (≈ 2.06 µM)
LX1; LX-1, cell number, Sulforhodamine B, 48 hours exposure, Table 6
  IC50: 6.88 µg/mL (≈ 17.9 µM)
A27805; [8]
  IC50: 2.03 µg/mL (≈ 5.28 µM)
HCT15; HCT-15, cell number, Sulforhodamine B, 48 hours exposure, Table 5
  IC50: 0.727 µg/mL (≈ 1.89 µM)
CX1; CX-1, cell number, Sulforhodamine B, 48 hours exposure, Table 4
  IC50: 0.97 µg/mL (≈ 2.52 µM)
B7474; [9]
  IC50: 1.58 µg/mL (≈ 4.1 µM)
T47D; cell number, Sulforhodamine B, 48 hours exposure, Table 6, read-out: IC50 T47D
  IC50: 3.33 µg/mL (≈ 8.67 µM)
[1]
  IC50: 1.5 nM
CCL228; cell number, Sulforhodamine B, 48 hours exposure, Table 5
  IC50: 4.91 µg/mL (≈ 12.8 µM)
NEC; [9]
  IC50: 2.23 µg/mL (≈ 5.81 µM)
A431 [2]; cell number, Sulforhodamine B, 48 hours exposure, Table 6, read-out: IC50 A431
  IC50: 0.434 µg/mL (≈ 1.13 µM)
A431 [2]; cell number, Sulforhodamine B, 48 hours exposure, Table 8, read-out: IC50 A431
  IC50: 0.1 µg/mL (≈ 0.26 µM)
SW620; cell number, Sulforhodamine B, 48 hours exposure, Table 4, read-out: IC50 SW620
  IC50: 4.54 µg/mL (≈ 11.8 µM)
SW620; cell number, Sulforhodamine B, 48 hours exposure, Table 8, read-out: IC50 SW620
  IC50: 0.82 µg/mL (≈ 2.13 µM)
SW948; SW948, cell number, Sulforhodamine B, 48 hours exposure, Table 5
  IC50: 5.48 µg/mL (≈ 14.3 µM)
MCF7; cell number, Sulforhodamine B, 48 hours exposure, Table 5, read-out: IC50 MCF7
  IC50: 5.66 µg/mL (≈ 14.7 µM)
MCF7; cell number, Sulforhodamine B, 48 hours exposure, Table 8, read-out: IC50 MCF7
  IC50: 6.04 µg/mL (≈ 15.7 µM)
COLO205; COLO 205, cell number, Sulforhodamine B, 48 hours exposure, Table 4
  IC50: 3.1 µg/mL (≈ 8.06 µM)
CACO2; Caco-2, cell number, Sulforhodamine B, 48 hours exposure, Table 5
  IC50: 0.925 µg/mL (≈ 2.41 µM)
MIP
  IC50: 0.748 µg/mL (≈ 1.95 µM)
DU145; DU-145, cell number, Sulforhodamine B, 48 hours exposure, Table 7
  IC50: 0.585 µg/mL (≈ 1.52 µM)
A431 [3]; Homo sapiens, A-431, [3H]-thymidine incorporation, A431, read-out: IC50 A431
  IC50: 200 nM
LOX; cell number, Sulforhodamine B, 48 hours exposure, Table 6, read-out: IC50 LOX
  IC50: 0.871 µg/mL (≈ 2.27 µM)
LOX; cell number, Sulforhodamine B, 48 hours exposure, Table 8, read-out: IC50 LOX
  IC50: 1.65 µg/mL (≈ 4.29 µM)
A549; A549, cell number, Sulforhodamine B, 48 hours exposure, Table 6
  IC50: 2.27 µg/mL (≈ 5.91 µM)
A2780DDP; [8]
  IC50: 1.17 µg/mL (≈ 3.03 µM)
PC3; PC-3, cell number, Sulforhodamine B, 48 hours exposure, Table 7
  IC50: 5.16 µg/mL (≈ 13.4 µM)
NHEK; Homo sapiens, [3H]-thymidine incorporation
  IC50: 3 nM
LS174T; cell number, Sulforhodamine B, 48 hours exposure, Table 5, read-out: IC50 LS174T
  IC50: 0.885 µg/mL (≈ 2.3 µM)
SKBR3 [4]; Homo sapiens, SK-BR-3, [3H]-thymidine incorporation
  IC50: 25000 nM
SKBR3 [5]; SK-BR-3, cell number, Sulforhodamine B, 48 hours exposure, Table 8, read-out: IC50 SKBR3
  IC50: 0.48 µg/mL (≈ 1.25 µM)
CCRF-CFM; cell number, Sulforhodamine B, 48 hours exposure, Table 7
  IC50: 3.19 µg/mL (≈ 8.3 µM)
LNCAP; cell number, Sulforhodamine B, 48 hours exposure, Table 7, read-out: IC50 LNCAP
  IC50: 0.772 µg/mL (≈ 2.01 µM)

## CCOC(=O)c1cnc2cc(OC)c(OC)cc2c1O [Example 26, 3-Carbethoxy-4-hydroxy-6.7-dimethoxyquinoline]
NEU-3T3
  IC50: > 50000 nM
A431 [3]; [3H]-thymidine incorporation, A431, read-out: IC50 A431
  IC50: 100 nM
NHEK; [3H]-thymidine incorporation
  IC50: 400 nM
SKBR3 [4]; [3H]-thymidine incorporation
  IC50: > 50000 nM

## C=CC(=O)Nc1ccc2ncc(C#N)c(Nc3cccc(Br)c3)c2c1 [Example 18, N-[4-[(3-Bromophenyl)amino]-3-cyano-6-quinolinyl]-2-propenamide]
HL60; HL-60, 48 h
  IC50: 1.43 µg/mL (≈ 3.63 µM)
HTB161; 48 h
  IC50: 0.415 µg/mL (≈ 1.05 µM)
LX1; LX-1, 48 h
  IC50: 1.12 µg/mL (≈ 2.84 µM)
A27805; 48 h
  IC50: 0.628 µg/mL (≈ 1.6 µM)
HCT15; HCT-15, 48 h
  IC50: 1.67 µg/mL (≈ 4.25 µM)
CX1; CX-1, 48 h
  IC50: 1.56 µg/mL (≈ 3.97 µM)
B7474; 48 h
  IC50: 0.152 µg/mL (≈ 0.387 µM)
T47D; 48 h, read-out: IC50 T47D
  IC50: 1.31 µg/mL (≈ 3.34 µM)
[1]
  IC50: 0.021 nM
CCL228; 48 h
  IC50: 1.17 µg/mL (≈ 2.98 µM)
NEC; 48 h
  IC50: 1.41 µg/mL (≈ 3.6 µM)
A431 [2]; read-out: IC50 A431, cell number, Sulforhodamine B, 48 hours exposure, Table 6
  IC50: 0.249 µg/mL (≈ 0.633 µM)
[6]; day 7
  reduced tumor size: 29%
[6]; day 14, p <0.01
  reduced tumor size: 45%
[6]; days 21 and 28
  Tumor growth versus control: not reduced versus control
SW620; read-out: IC50 SW620, cell number, Sulforhodamine B, 48 hours exposure, Table 4
  IC50: 1.4 µg/mL (≈ 3.55 µM)
SW948; SW948, 48 h
  IC50: 1.94 µg/mL (≈ 4.93 µM)
MCF7; read-out: IC50 MCF7, cell number, Sulforhodamine B, 48 hours exposure, Table 5
  IC50: 2.17 µg/mL (≈ 5.52 µM)
COLO205; COLO 205, 48 h
  IC50: 1.9 µg/mL (≈ 4.84 µM)
CACO2; Caco-2, 48 h
  IC50: 0.576 µg/mL (≈ 1.46 µM)
MIP
  IC50: 1.47 µg/mL (≈ 3.74 µM)
DU145; DU-145, 48 h
  IC50: 0.322 µg/mL (≈ 0.818 µM)
A431 [3]; Homo sapiens, A-431, read-out: IC50 A431
  IC50: 0.01 nM
LOX; read-out: IC50 LOX, cell number, Sulforhodamine B, 48 hours exposure, Table 6
  IC50: 0.0851 µg/mL (≈ 0.216 µM)
A549; A549, 48 h
  IC50: 1.61 µg/mL (≈ 4.1 µM)
A2780DDP; 48 h
  IC50: 0.884 µg/mL (≈ 2.25 µM)
PC3; PC-3, 48 h
  IC50: 2.35 µg/mL (≈ 5.97 µM)
[7]
  IC50: > 100000 nM
NHEK; Homo sapiens
  IC50: 7 nM
LS174T; 48 h, read-out: IC50 LS174T
  IC50: 1.59 µg/mL (≈ 4.05 µM)
SKBR3 [5]; SK-BR-3, 48 h, read-out: IC50 SKBR3, cell number, Sulforhodamine B, 48 hours exposure, Table 7
  IC50: 1.85 µg/mL (≈ 4.71 µM)
CCRF-CFM; 48 h
  IC50: 1.04 µg/mL (≈ 2.64 µM)
LNCAP; 48 h, read-out: IC50 LNCAP
  IC50: 0.146 µg/mL (≈ 0.372 µM)
